Measured values as given in ChEMBL document CHEMBL3885861, “Open TG-GATES”.

Species on record: Rattus norvegicus
Test: Open TG-GATES - Regimen: Daily Repeat
Type: toxicity, organism-based, Sprague-Dawley
Design: regimen Daily Repeat, gender Male, age 6 weeks
Conditions: in vivo, po, route gavage; for ALP / ALT / AST / BUN / CRE / Ca / Cl / DBIL / GLC / IP / K / LDH / Na / PL / RALB / TBIL / TC / TG / TP / gamma-GTP / A/G: tissue Plasma; for APTT / Bas / Eos / Fbg / Hb / Ht / Lym / MCH / MCHC / MCV / Mono / Neu / PT / Plat / RBC / Ret / WBC: tissue Blood; for KIDNEY_L / KIDNEY_R / KIDNEY_TOTAL: tissue Kidney; for LIVER: tissue Liver
[1] = 3 mg/kg, […], dose level Low, time 14 day
[2] = 3 mg/kg, […], dose level Low, time 28 day
[3] = 10 mg/kg, 72 h, dose level Middle, time 3 day
[4] = 10 mg/kg, […], dose level Middle, time 7 day
[5] = 10 mg/kg, […], dose level Middle, time 14 day
[6] = 10 mg/kg, […], dose level Middle, time 28 day
[7] = 30 mg/kg, 72 h, dose level High, time 3 day
[8] = 30 mg/kg, […], dose level High, time 7 day
[9] = 30 mg/kg, […], dose level High, time 14 day

C[C@H]1C(=O)O[C@@H]2CCN3CC=C(COC(=O)[C@](C)(O)[C@]1(C)O)[C@H]23 [MONOCROTALINE]
ALP [1]: 1435.6 IU/L
ALT [1]: 41.4 IU/L
AST [1]: 76.6 IU/L
BUN [1]: 16.4 mg/dL
CRE [1]: 0.2 mg/dL
Ca [1]: 11 mg/dL
Cl [1]: 106.4 meq/L
DBIL [1]: 0 mg/dL
GLC [1]: 185.4 mg/dL
IP [1]: 6.2 mg/dL
K [1]: 4 meq/L
LDH [1]: 269.8 IU/L
Na [1]: 142.4 meq/L
PL [1]: 161.6 mg/dL
RALB [1]: 3 g/dL
TBIL [1]: 0 mg/dL
TC [1]: 92.2 mg/dL
TG [1]: 97 mg/dL
TP [1]: 5.9 g/dL
gamma-GTP [1]: 2.2 IU/L
A/G [2]: 1.1
ALP [2]: 1124.2 IU/L
ALT [2]: 41.8 IU/L
AST [2]: 87.4 IU/L
BUN [2]: 19 mg/dL
CRE [2]: 0.2 mg/dL
Ca [2]: 10.7 mg/dL
Cl [2]: 108.4 meq/L
DBIL [2]: 0 mg/dL
GLC [2]: 182.2 mg/dL
IP [2]: 6 mg/dL
K [2]: 4.3 meq/L
LDH [2]: 290.2 IU/L
Na [2]: 143.2 meq/L
PL [2]: 158.8 mg/dL
RALB [2]: 3.2 g/dL
TBIL [2]: 0.034 mg/dL
TC [2]: 81.2 mg/dL
TG [2]: 128.2 mg/dL
TP [2]: 6.1 g/dL
gamma-GTP [2]: 1.2 IU/L
TERMINAL_BW [3]: 231.2 g
APTT [3]: 19.4 s
Bas [3]: 0%
Eos [3]: 0.8%
Fbg [3]: 324.6 mg/dL
Hb [3]: 13.8 g/dL
Ht [3]: 40.1%
Lym [3]: 78.2%
MCH [3]: 21.5 pg
MCHC [3]: 34.5%
MCV [3]: 62.2 fL
Mono [3]: 2.8%
Neu [3]: 17.6%
PT [3]: 15.9 s
Plat [3]: 126.9 x10_4/uL
RBC [3]: 646.6 x10_4/ul
Ret [3]: 6%
WBC [3]: 73.2 x10_2/uL
KIDNEY_L [3]: 1 g
KIDNEY_R [3]: 1 g
KIDNEY_TOTAL [3]: 2 g
LIVER [3]: 10.7 g
A/G [3]: 1.3
ALP [3]: 1897.2 IU/L
ALT [3]: 40.8 IU/L
AST [3]: 73.6 IU/L
BUN [3]: 16.2 mg/dL
CRE [3]: 0.2 mg/dL
Ca [3]: 10.9 mg/dL
Cl [3]: 106.4 meq/L
DBIL [3]: 0.002 mg/dL
GLC [3]: 184.4 mg/dL
IP [3]: 7.2 mg/dL
K [3]: 4.6 meq/L
LDH [3]: 283 IU/L
Na [3]: 142 meq/L
PL [3]: 167.2 mg/dL
RALB [3]: 3.1 g/dL
TBIL [3]: 0.01 mg/dL
TC [3]: 90.4 mg/dL
TG [3]: 113.6 mg/dL
TP [3]: 5.5 g/dL
gamma-GTP [3]: 1 IU/L
TERMINAL_BW [4]: 249.4 g
TERMINAL_BW [5]: 274.8 g
TERMINAL_BW [6]: 321 g
APTT [4]: 21.5 s
Bas [4]: 0%
Eos [4]: 1%
Fbg [4]: 391.6 mg/dL
Hb [4]: 13.9 g/dL
Ht [4]: 39.4%
Lym [4]: 78.8%
MCH [4]: 20.7 pg
MCHC [4]: 35.1%
MCV [4]: 58.8 fL
Mono [4]: 4.2%
Neu [4]: 14.8%
PT [4]: 16.4 s
Plat [4]: 134.7 x10_4/uL
RBC [4]: 670.6 x10_4/ul
Ret [4]: 4.5%
WBC [4]: 135.7 x10_2/uL
APTT [5]: 21.2 s
Bas [5]: 0%
Eos [5]: 0.2%
Fbg [5]: 480 mg/dL
Hb [5]: 14.4 g/dL
Ht [5]: 41.1%
Lym [5]: 84.2%
MCH [5]: 20.5 pg
MCHC [5]: 35.2%
MCV [5]: 58.2 fL
Mono [5]: 4.8%
Neu [5]: 9.6%
PT [5]: 16.4 s
Plat [5]: 136.8 x10_4/uL
RBC [5]: 705.4 x10_4/ul
Ret [5]: 2.9%
WBC [5]: 250.8 x10_2/uL
APTT [6]: 26.9 s
Bas [6]: 0%
Eos [6]: 1%
Fbg [6]: 293.8 mg/dL
Hb [6]: 15.3 g/dL
Ht [6]: 43.1%
Lym [6]: 76.4%
MCH [6]: 18.8 pg
MCHC [6]: 35.6%
MCV [6]: 52.7 fL
Mono [6]: 4.6%
Neu [6]: 17%
PT [6]: 16.1 s
Plat [6]: 84.1 x10_4/uL
RBC [6]: 818 x10_4/ul
Ret [6]: 4.5%
WBC [6]: 308 x10_2/uL
KIDNEY_L [4]: 1.1 g
KIDNEY_R [4]: 1.1 g
KIDNEY_TOTAL [4]: 2.2 g
KIDNEY_L [5]: 1.1 g
KIDNEY_R [5]: 1.2 g
KIDNEY_TOTAL [5]: 2.3 g
KIDNEY_L [6]: 1.3 g
KIDNEY_R [6]: 1.3 g
KIDNEY_TOTAL [6]: 2.6 g
LIVER [4]: 11.6 g
LIVER [5]: 13.3 g
LIVER [6]: 15 g
A/G [4]: 1.1
ALP [4]: 1684.4 IU/L
ALT [4]: 46.6 IU/L
AST [4]: 87.8 IU/L
BUN [4]: 15.4 mg/dL
CRE [4]: 0.1 mg/dL
Ca [4]: 11 mg/dL
Cl [4]: 107.4 meq/L
DBIL [4]: 0.002 mg/dL
GLC [4]: 181.2 mg/dL
IP [4]: 6.6 mg/dL
K [4]: 4.3 meq/L
LDH [4]: 236 IU/L
Na [4]: 142 meq/L
PL [4]: 149 mg/dL
RALB [4]: 3 g/dL
TBIL [4]: 0.006 mg/dL
TC [4]: 82 mg/dL
TG [4]: 111 mg/dL
TP [4]: 5.7 g/dL
gamma-GTP [4]: 1.8 IU/L
A/G [5]: 0.8
ALP [5]: 2092 IU/L
ALT [5]: 88.8 IU/L
AST [5]: 174.4 IU/L
BUN [5]: 17.2 mg/dL
CRE [5]: 0.3 mg/dL
Ca [5]: 11.2 mg/dL
Cl [5]: 106.6 meq/L
DBIL [5]: 0.006 mg/dL
GLC [5]: 171 mg/dL
IP [5]: 5.9 mg/dL
K [5]: 4.8 meq/L
LDH [5]: 454.8 IU/L
Na [5]: 141 meq/L
PL [5]: 139 mg/dL
RALB [5]: 2.6 g/dL
TBIL [5]: 0.008 mg/dL
TC [5]: 71.6 mg/dL
TG [5]: 103.2 mg/dL
TP [5]: 5.8 g/dL
gamma-GTP [5]: 2.4 IU/L
A/G [6]: 0.9
ALP [6]: 1353.2 IU/L
ALT [6]: 82.8 IU/L
AST [6]: 155 IU/L
BUN [6]: 17.4 mg/dL
CRE [6]: 0.2 mg/dL
Ca [6]: 11 mg/dL
Cl [6]: 107.8 meq/L
DBIL [6]: 0.078 mg/dL
GLC [6]: 167.6 mg/dL
IP [6]: 6 mg/dL
K [6]: 4.5 meq/L
LDH [6]: 382.8 IU/L
Na [6]: 141.4 meq/L
PL [6]: 140 mg/dL
RALB [6]: 2.9 g/dL
TBIL [6]: 0.1 mg/dL
TC [6]: 79.6 mg/dL
TG [6]: 47.2 mg/dL
TP [6]: 6 g/dL
gamma-GTP [6]: 1.6 IU/L
TERMINAL_BW [7]: 232.9 g
APTT [7]: 17.3 s
Bas [7]: 0%
Eos [7]: 0.8%
Fbg [7]: 350.2 mg/dL
Hb [7]: 13.8 g/dL
Ht [7]: 39.9%
Lym [7]: 73.6%
MCH [7]: 21.4 pg
MCHC [7]: 34.5%
MCV [7]: 62.1 fL
Mono [7]: 4.4%
Neu [7]: 19.8%
PT [7]: 16.2 s
Plat [7]: 124.3 x10_4/uL
RBC [7]: 643.2 x10_4/ul
Ret [7]: 4.8%
WBC [7]: 80.8 x10_2/uL
KIDNEY_L [7]: 1 g
KIDNEY_R [7]: 1 g
KIDNEY_TOTAL [7]: 2.1 g
LIVER [7]: 12.5 g
A/G [7]: 1.3
ALP [7]: 1831.6 IU/L
ALT [7]: 47.2 IU/L
AST [7]: 112.4 IU/L
BUN [7]: 13.6 mg/dL
CRE [7]: 0.1 mg/dL
Ca [7]: 11.1 mg/dL
Cl [7]: 106.4 meq/L
DBIL [7]: 0.01 mg/dL
GLC [7]: 180.2 mg/dL
IP [7]: 7 mg/dL
K [7]: 4.5 meq/L
LDH [7]: 398 IU/L
Na [7]: 141.2 meq/L
PL [7]: 161.4 mg/dL
RALB [7]: 3.2 g/dL
TBIL [7]: 0.028 mg/dL
TC [7]: 88.4 mg/dL
TG [7]: 100 mg/dL
TP [7]: 5.7 g/dL
gamma-GTP [7]: 1.2 IU/L
TERMINAL_BW [8]: 230.5 g
APTT [8]: 24.3 s
Bas [8]: 0%
Eos [8]: 0.4%
Fbg [8]: 451.4 mg/dL
Hb [8]: 14.1 g/dL
Ht [8]: 40.7%
Lym [8]: 71.6%
MCH [8]: 20.2 pg
MCHC [8]: 34.6%
MCV [8]: 58.3 fL
Mono [8]: 4.8%
Neu [8]: 18.6%
PT [8]: 17.5 s
Plat [8]: 44 x10_4/uL
RBC [8]: 697.8 x10_4/ul
Ret [8]: 2.9%
WBC [8]: 122 x10_2/uL
Mono [9]: 7%
KIDNEY_L [8]: 1.1 g
KIDNEY_R [8]: 1.1 g
KIDNEY_TOTAL [8]: 2.2 g
LIVER [8]: 11.3 g
A/G [8]: 1
ALP [8]: 1889.2 IU/L
ALT [8]: 273.2 IU/L
AST [8]: 504.2 IU/L
BUN [8]: 13 mg/dL
CRE [8]: 0.2 mg/dL
Ca [8]: 10.8 mg/dL
Cl [8]: 106 meq/L
DBIL [8]: 0.2 mg/dL
GLC [8]: 156 mg/dL
IP [8]: 6.9 mg/dL
K [8]: 4.4 meq/L
LDH [8]: 749.6 IU/L
Na [8]: 141 meq/L
PL [8]: 139.8 mg/dL
RALB [8]: 2.6 g/dL
TBIL [8]: 0.3 mg/dL
TC [8]: 86.4 mg/dL
TG [8]: 38.8 mg/dL
TP [8]: 5.3 g/dL
gamma-GTP [8]: 2.2 IU/L
BUN [9]: 13.5 mg/dL
CRE [9]: 0.2 mg/dL
TP [9]: 4.9 g/dL
